In patent US9868733B2, “Azabenzimidazole tetrahydrofuran derivatives” (Merck Sharp & Dohme Corp., priority 2012, dated 2018):

Key:
[1] = target: recombinant human AMPK complex 7 (containing α2β1γ1) (Homo sapiens, UniProt P54646+Q9Y478); test: in vitro AMPK activation assay (AMPKSAMSF); assay type: biochemical; conditions: for EC50: inflection point reflecting 50% of the maximum activation, human AMPK Complex 7; for Emax: recombinant human AMPK complex 7 (α2β1γ1), 10-point titration expressed as % maximum AMP activation
Sequence of recombinant human AMPK complex 7 (containing α2β1γ1) (P54646 whole entry): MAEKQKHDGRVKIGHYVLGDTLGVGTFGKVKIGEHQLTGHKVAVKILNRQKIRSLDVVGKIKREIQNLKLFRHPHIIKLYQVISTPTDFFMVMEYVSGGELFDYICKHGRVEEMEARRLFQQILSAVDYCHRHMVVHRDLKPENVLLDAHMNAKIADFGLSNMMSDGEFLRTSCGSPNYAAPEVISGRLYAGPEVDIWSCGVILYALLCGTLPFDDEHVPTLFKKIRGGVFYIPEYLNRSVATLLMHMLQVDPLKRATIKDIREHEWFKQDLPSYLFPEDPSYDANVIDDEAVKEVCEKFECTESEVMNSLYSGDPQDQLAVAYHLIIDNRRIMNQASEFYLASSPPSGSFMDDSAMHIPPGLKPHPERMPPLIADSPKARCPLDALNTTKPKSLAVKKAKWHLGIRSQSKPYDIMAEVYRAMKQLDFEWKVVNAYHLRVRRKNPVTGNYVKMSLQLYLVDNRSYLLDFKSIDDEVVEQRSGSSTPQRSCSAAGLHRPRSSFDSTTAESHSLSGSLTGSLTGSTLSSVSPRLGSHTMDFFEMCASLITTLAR
Sequence of recombinant human AMPK complex 7 (containing α2β1γ1) (Q9Y478 whole entry): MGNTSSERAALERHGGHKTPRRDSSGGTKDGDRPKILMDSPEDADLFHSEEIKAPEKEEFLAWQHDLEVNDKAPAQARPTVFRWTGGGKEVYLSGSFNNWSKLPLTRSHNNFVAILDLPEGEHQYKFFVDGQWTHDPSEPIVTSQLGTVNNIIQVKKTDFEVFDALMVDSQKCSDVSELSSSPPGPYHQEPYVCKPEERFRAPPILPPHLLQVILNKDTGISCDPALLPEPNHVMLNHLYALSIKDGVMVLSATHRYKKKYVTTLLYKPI
Sequence of recombinant human AMPK complex 7 (containing α2β1γ1) (P54619 whole entry partner): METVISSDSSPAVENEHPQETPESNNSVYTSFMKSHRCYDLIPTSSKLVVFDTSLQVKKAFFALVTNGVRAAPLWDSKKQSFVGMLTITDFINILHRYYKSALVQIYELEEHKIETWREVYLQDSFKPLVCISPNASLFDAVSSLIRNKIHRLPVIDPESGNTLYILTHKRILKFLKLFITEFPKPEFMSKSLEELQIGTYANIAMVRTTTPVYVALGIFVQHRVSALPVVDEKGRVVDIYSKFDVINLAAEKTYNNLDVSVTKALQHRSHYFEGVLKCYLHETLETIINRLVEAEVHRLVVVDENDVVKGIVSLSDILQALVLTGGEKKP
Description: The recombinant human AMPK complex 1 (containing α1β1γ1) or AMPK complex 7 (containing α2β1γ1) was obtained from baculovirus expression system. Recombinant viruses were generated by cotransfection of AMPK/pBacPak9 clones with Baculogold baculovirus DNA (Pharmingen) in spodoptera frugiperda 21 cells according to the manufacturer's instructions. Each round of virus amplification was performed for 5 days in Grace's medium containing 10% serum. Virus that had been subjected to three rounds of amplification was used for all protein production procedures. To express the AMPK complex, sf21 cells were adapted to serum free medium (SF900 II, Invitrogen) by sequential dilution from serum containing stocks into SF900II medium and maintained in shaker flasks at 90 rpm at 27° C. The recombinant AMPK enzyme complex was produced by triple infection, one recombinant virus for each of the subunits, in sf21 cells under serum free conditions. Cells were infected in log phase, 1×10^6 cells/ml, at a multiplicity of infection of ˜5. Cells were harvested by centrifugation at 10,000×g for 15 minutes after 72 hours of infection with viruses. The insect cell pellet from 2 liters of culture was resuspended in 50 ml lysis buffer (20 mM Tris-HCl, 50 mM NaCl, 50 mM NaF, 30 mM Na PPi, 0.25 M sucrose, 10 mM ZnCl2, 2 mM DTT, 0.4 mg/ml digitonin) and subjected to two cycles of freeze-thaw lysis in a dry-ice ethanol bath. Insoluble material was removed by centrifugation at 10,000×g and the supernatant was fractionated with use of polyethylene glycol (PEG). The protein fraction precipitating between 2.5 and 6% PEG was used for further purification using a Blue-Sepharose step (Zhou et al, J. Clin. Invest. 108, 1167-1174, 2001).
The in vitro AMPK activation assay is performed in a volume of 30 μl in a 384-well plate. Enzyme reactions were assembled in the microtiter plate by adding 15 μl of 2× enzyme in assay buffer (20 mM HEPES, pH 7.3, 5 mM MgCl2, 3 mM DTT, 0.01% Brij 35 and CamK Kinase, to activate AMPK) to wells which contained either DMSO or compound. The reaction was initiated with the addition of 15 μl 2× substrate mixture containing 200 μM ATP, and 3.0 μM fluorescently labeled SAMS (5-FAM-HMRSAMSGLHLVKRR-COOH) in assay buffer. After 45-minute incubation at 25° C., the reaction was stopped by the addition of 70 μl stop buffer (100 mM HEPES, pH 7.3, 40 mM EDTA, 0.015% Brij 35). Phosphorylated 5-FAM SAMS product is assessed using a Caliper EZ Reader LabChip microfluidics reader. Product conversion is determined by calculating the peak heights of the substrate and product and reporting the product/(product+substrate) peak ratio. The 10-point titration data were expressed as % maximum AMP activation. The results were plotted using 4 parameter fit and the inflection point reflecting 50% of the maximum activation was reported as the EC50.

[2] = system: ob/ob and db/db mice; conditions: following 8 weeks of administration; cited from earlier work

N#CCCn1nnnc1-c1ccc(-c2ccc(-c3nc4nc(O[C@@H]5CO[C@H](CO)[C@H]5O)[nH]c4cc3Cl)cc2)cc1 [Example 20]
EC50 [1]: 8 nM | Emax [1]: 242%

OC[C@H]1OC[C@@H](Oc2nc3nc(-c4ccc(Br)cc4)c(Cl)cc3[nH]2)[C@@H]1O [Example 10, (2R,3R,4R)-4-[[5-(4-bromophenyl)-6-chloro-1H-imidazo[4,5-b]pyridin-2-yl]oxy]-2-(hydroxymethyl)tetrahydrofuran-3-ol]
EC50 [1]: 3650 nM | Emax [1]: 209%

OC[C@H]1OC[C@@H](Oc2nc3nc(-c4ccc(-c5ccc(-n6cccn6)cc5)cc4)c(Cl)cc3[nH]2)[C@@H]1O [Example 2]
EC50 [1]: 4 nM | Emax [1]: 315%

OC[C@H]1OC[C@@H](Oc2nc3nc(-c4ccc(-c5ccccc5)cc4)c(Cl)cc3[nH]2)[C@@H]1O [Example 3]
EC50 [1]: 13 nM | Emax [1]: 338%

OC[C@H]1OC[C@@H](Oc2nc3nc(-c4ccc(-c5ccc(-n6nccn6)cc5)cc4)c(Cl)cc3[nH]2)[C@@H]1O [Example 4, (2R,3R,4R)-4-[[6-chloro-5-[4-[4-(triazol-2-yl)phenyl]phenyl]-1H-imidazo[4,5-b]pyridin-2-yl]oxy]2-(hydroxymethyl)tetrahydrofuran-3-ol]
EC50 [1]: 20 nM | Emax [1]: 206%

OC[C@H]1OC[C@@H](Oc2nc3nc(-c4ccc(-c5ccc(F)cc5F)cc4)c(Cl)cc3[nH]2)[C@@H]1O [Example 21]
EC50 [1]: 85 nM | Emax [1]: 307%

OC[C@H]1OC[C@@H](Oc2nc3nc(-c4ccc(-c5cccc(F)c5)cc4)c(Cl)cc3[nH]2)[C@@H]1O [Example 19]
EC50 [1]: 126 nM | Emax [1]: 231%

OC[C@H]1OC[C@@H](Oc2nc3nc(-c4ccc(-c5ccc(-n6cccn6)nc5)cc4)c(Cl)cc3[nH]2)[C@@H]1O [Example 1, (2R,3R,4R)-4-[[6-chloro-5-[4-(6-pyrazol-1-yl-3-pyridyl)phenyl]-1H-imidazo[4,5-b]pyridin-2-yl]oxy]-2-(hydroxymethyl)tetrahydrofuran-3-ol]
EC50 [1]: 16 nM | Emax [1]: 188%

CC(C)(O)Cc1cnn(-c2ccc(-c3ccc(-c4nc5nc(O[C@@H]6CO[C@H](CO)[C@H]6O)[nH]c5cc4Cl)cc3)cc2)c1 [Example 6]
EC50 [1]: 5 nM | Emax [1]: 268%

OC[C@H]1OC[C@@H](Oc2nc3nc(-c4ccc(-c5ccccc5F)cc4)c(Cl)cc3[nH]2)[C@@H]1O [Example 18]
EC50 [1]: 32 nM | Emax [1]: 294%

O=C(O)[C@H]1OC[C@@H](Oc2nc3nc(-c4ccc(-c5ccccc5)cc4)c(Cl)cc3[nH]2)[C@@H]1O [Example 12, (2S,3S,4R)-4-[[6-chloro-5-(4-phenylphenyl)-1H-imidazo[4,5-b]pyridin-2-yl]oxy]-3-hydroxy-tetrahydrofuran-2-carboxylic acid]
EC50 [1]: 332 nM | Emax [1]: 313%

CC(C)(O)Cn1cc2c(n1)CN(c1ccc(-c3nc4nc(O[C@@H]5CO[C@H](CO)[C@H]5O)[nH]c4cc3Cl)cc1)C2 [Example 8, (2R,3R,4R)-4-[[6-chloro-5-[4-[2-(2-hydroxy-2-methyl-propy)-4,6-dihydropyrrolo[3,4-c]pyrazol-5-yl]phenyl]-1H-imidazo[4,5-b]pyridin-2-yl]oxy]-2-(hydroxymethyl)-tetrahydrofuran-3-ol; 2,2,2-trifluoroacetic acid]
EC50 [1]: 9 nM | Emax [1]: 332%

C[C@]1(O)[C@@H](CO)OC[C@H]1Oc1nc2nc(-c3ccc(-c4ccccc4)cc3)c(Cl)cc2[nH]1 [Example 14, (2R,3S,4R)-4-[[6-chloro-5-(4-phenylphenyl)-1H-imidazo[4,5-b]pyridin-2-yl]oxy]-2-(hydroxymethyl)-3-methyl-tetrahydrofuran-3-ol]
EC50 [1]: 289 nM | Emax [1]: 203%

NC(=O)c1ncn([C@@H]2O[C@H](CO)[C@@H](O)[C@H]2O)c1N [AICAR]
blood glucose reduction [2]: 35%

CC(C)(F)Cn1cc2c(n1)CN(c1ccc(-c3nc4nc(O[C@@H]5CO[C@H](CO)[C@H]5O)[nH]c4cc3Cl)cc1)C2 [Example 9, (2R,3R,4R)-4-[[6-chloro-5-[4-[2-(2-fluoro-2-methyl-propyl)-4,6-dihydropyrrolo[3,4-c]pyrazol-5-yl]phenyl]-1H-imidazo[4,5-b]pyridin-2-yl]oxy]-2-(hydroxymethyl)tetrahydrofuran-3-ol]
EC50 [1]: 11 nM | Emax [1]: 294%

OC[C@H]1OC[C@@H](Oc2nc3nc(-c4ccc(-c5ccc(N6CCOCC6)cc5)cc4)c(Cl)cc3[nH]2)[C@@H]1O [Example 22]
EC50 [1]: 5 nM | Emax [1]: 252%

OC[C@H]1OC[C@@H](Oc2nc3nc(-c4ccc(-c5ccc(F)cc5)cc4)c(Cl)cc3[nH]2)[C@@H]1O [Example 23]
EC50 [1]: 38 nM | Emax [1]: 231%

OC[C@H]1OC[C@@H](Oc2nc3nc(-c4ccc(-c5ccc(-n6cncn6)cc5)cc4)c(Cl)cc3[nH]2)[C@@H]1O [Example 5, (2R,3R,4R)-4-[[6-chloro-5-[4-[4-(1,2,4-triazol-1-yl)phenyl]phenyl]-1H-imidazo[4,5-b]pyridin-2-yl]oxy]-2-(hydroxymethyl)tetrahydrofuran-3-ol]
EC50 [1]: 2 nM | Emax [1]: 261%

OC[C@H]1OC[C@@H](Oc2nc3nc(-c4ccc(-c5ccc(-n6cnnn6)cc5)cc4)c(Cl)cc3[nH]2)[C@@H]1O [Example 7, (2R,3R,4R)-4-[[6-chloro-5-[4-[4-(tetrazol-1-yl)phenyl]phenyl]-1H-imidazo[4,5-b]pyridin-2-yl]oxy]-2-(hydroxymethyl)tetrahydrofuran-3-ol]
EC50 [1]: 3 nM | Emax [1]: 282%
